{"source": "patent US10889553B2", "about": "“Asymmetric triazole benzamide derivatives and the compositions and methods of treatment regarding the same” (NysnoBio Ireland DAC, priority 2017, dated 2021)", "assay_in_all_cases": "Cancer cell proliferation assay (acid phosphatase)", "type_in_all_cases": "cell-based", "key": {"HCT-116 (colon)": {"test_system": "HCT-116 (colon)", "conditions": "Homo sapiens, HCT-116; Table 6E; read-out: Proliferation IC50 (nM) CRC HCT-116", "procedure,_shortened": "(§1)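 Seed 4×10^4 cells/ml, overnight 37° C./5% CO2; add compound (varying conc., triplicate); incubate 72 hrs; wash PBS; acid phosphatase substrate pH 5.5, 2 h; stop NaOH; read 405/620 nm; % inhibition vs DMSO.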"}, "JEKO-1 (lymophoma)": {"test_system": "JEKO-1 (lymophoma)", "conditions": "Homo sapiens, Table 6E, read-out: Proliferation IC50 (nM) Mantle Cell Jeko-1", "procedure,_shortened": "as §1"}, "Mantle Cell Mino": {"test_system": "Mantle Cell Mino", "conditions": "Homo sapiens, Table 6E", "procedure,_shortened": "as §1"}, "Ovarian (A2780)": {"test_system": "Ovarian (A2780)", "conditions": "Homo sapiens, Table 6E", "procedure,_shortened": "as §1"}, "Ovarian (OAW42)": {"test_system": "Ovarian (OAW42)", "conditions": "Homo sapiens, OAW-42; Table 6E", "procedure,_shortened": "as §1"}, "TOV-112D (ovarian)": {"test_system": "TOV-112D (ovarian)", "conditions": "Homo sapiens, TOV112D; Table 6E; read-out: Proliferation IC50 (nM) Ovarian TOV112D", "procedure,_shortened": "as §1"}, "TOV-21G (ovarian)": {"test_system": "TOV-21G (ovarian)", "conditions": "Homo sapiens, TOV21G; Table 6E; read-out: Proliferation IC50 (nM) Ovarian TOV21G", "procedure,_shortened": "as §1"}}}
{"smiles": "Cc1ccccc1C(=O)Nc1nc(NC(=O)c2ccccc2C)n(-c2ccccc2)n1", "note": "[Compound F, 2-methyl-N-[5-[(2-methylbenzoyl)amino]-1-phenyl-1,2,4-triazol-3-yl]benzamide]", "values": [{"measurement": "IC50", "setting": "HCT-116 (colon)", "value": 1300, "unit": "nM"}, {"measurement": "IC50", "setting": "JEKO-1 (lymophoma)", "value": "> 2500", "unit": "nM"}, {"measurement": "IC50", "setting": "Mantle Cell Mino", "value": 884, "unit": "nM"}, {"measurement": "IC50", "setting": "Ovarian (A2780)", "value": 1300, "unit": "nM"}, {"measurement": "IC50", "setting": "Ovarian (OAW42)", "value": "> 2500", "unit": "nM"}, {"measurement": "IC50", "setting": "TOV-112D (ovarian)", "value": 850, "unit": "nM"}, {"measurement": "IC50", "setting": "TOV-21G (ovarian)", "value": 1500, "unit": "nM"}]}
